Results published in PMC6106167, “Small‐Molecule Neuromedin U Receptor 2 Agonists Suppress Food Intake and Decrease Visceral Fat in Animal Models” (Pharmacology Research & Perspectives, 2018).
Where two headings read alike, the source gives them in different places.

Key:
[1] = target: T1, neuromedin U receptor 2 (NMUR2) (Homo sapiens, UniProt Q9GZQ4); test: GloSensor cAMP inhibition (Gi mode) in hNMUR2 HEK293 cells; no effect in cells lacking NMUR2; FLIPR calcium EC50 […]; format: cell-based; details: read-out: Gi/o EC50
T1 construct: human NMUR2 stably expressed in HEK293 cells
T1 sequence (Q9GZQ4 whole entry): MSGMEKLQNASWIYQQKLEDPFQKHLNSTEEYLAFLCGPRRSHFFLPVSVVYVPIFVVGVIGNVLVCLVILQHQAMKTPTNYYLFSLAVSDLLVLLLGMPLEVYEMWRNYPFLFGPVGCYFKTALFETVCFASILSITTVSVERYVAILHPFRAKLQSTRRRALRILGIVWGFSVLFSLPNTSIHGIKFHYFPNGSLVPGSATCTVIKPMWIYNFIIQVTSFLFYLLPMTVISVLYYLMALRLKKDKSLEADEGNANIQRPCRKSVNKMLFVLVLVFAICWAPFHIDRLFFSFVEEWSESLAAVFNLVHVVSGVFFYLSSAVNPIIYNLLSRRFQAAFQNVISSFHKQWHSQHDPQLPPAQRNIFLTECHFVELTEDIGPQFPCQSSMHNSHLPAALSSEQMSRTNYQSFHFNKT

[2] = target: T1, neuromedin U receptor 2 (NMUR2); test: as above; format: cell-based; details: read-out: Gi/o EC50; remark: listed apart in the source

EC50 [1] [nM]	EC50 [2] [nM]	Structure (SMILES)
1.69		N=C(N)NCCOC(c1ccccc1)(c1ccccc1)c1ccccc1 [NY0116]
	0.71	N=C(N)NCCCOC(c1ccccc1)(c1ccccc1)c1ccccc1 [NY0128]
